For test [1], the target named is T1, Mouse urotensin (mUR2) (Mus musculus, UniProt Q8VIH9).
T1 construct: purchased Perkin Elmer Biosignal
T1 sequence (Q8VIH9 1-385): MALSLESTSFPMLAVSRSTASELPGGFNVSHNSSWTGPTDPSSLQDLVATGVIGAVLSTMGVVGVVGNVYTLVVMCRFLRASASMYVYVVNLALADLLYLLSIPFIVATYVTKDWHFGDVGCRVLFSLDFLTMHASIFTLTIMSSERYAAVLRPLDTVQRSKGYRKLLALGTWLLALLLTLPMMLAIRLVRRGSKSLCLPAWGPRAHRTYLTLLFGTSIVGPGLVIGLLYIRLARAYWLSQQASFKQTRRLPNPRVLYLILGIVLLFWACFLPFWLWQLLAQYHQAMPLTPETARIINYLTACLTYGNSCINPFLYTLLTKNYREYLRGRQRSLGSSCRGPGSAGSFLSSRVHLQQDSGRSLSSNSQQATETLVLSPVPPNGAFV
The test can be described thus: Radioligand binding, mouse urotensin mUR2 membranes, FlashPlate, [125I]-Urotensin II. Particulars: compound at 10 μM; mouse urotensin mUR2 membranes. The essentials:
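Cloned mouse urotensin (mUR2) receptor membranes from Perkin Elmer Biosignal were immobilized in FlashPlate microplates using a proprietary coating. Each well got 19.5 μl buffer, then 0.5 μl of DMSO, reference ligand, or compound. Adding 5 μl of [125I]-Urotensin II, diluted to 5× final concentration in binding buffer, started binding. Plates were sealed with TopSeal-A and incubated 1 hour at room temperature in the dark. Wells were counted for 30 seconds each on a TopCount after a 60-second delay, and percentage inhibition was calculated.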

Test [2] has as its target T2, Human δ-opioid (DOP) (Homo sapiens, UniProt P41143).
T2 construct: purchased Perkin Elmer Biosignal
The test is described as follows: Radioligand binding, human δ-opioid (DOP) membranes, FlashPlate, [3H]-Bremazocine. Particulars: compound at 10 μM; human δ-opioid (DOP) membranes. The essentials: (§1)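 Cloned human receptor membranes were coated onto FlashPlate wells and incubated with radioligand and compound (added from a 0.5 mM DMSO daughter plate) for 1 hour at room temperature in the dark. Scintillation counting gave percent inhibition, with DMSO defining total and reference ligand defining non-specific binding.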

Test [3] concerns the target T3, Human κ-Opioid (KOP) (Homo sapiens, UniProt P41145).
T3 construct: purchased Perkin Elmer Biosignal
The test can be described thus: Radioligand binding, human κ-opioid (KOP) membranes, filtration, [3H]-Diprenorphine. Particulars: compound at 10 μM; human κ-opioid (KOP) membranes. In a few lines: (§2)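 Filtration binding on cloned human receptor membranes (1 Unit/well), [125I]-Substance P for NK1 and [3H]-Diprenorphine for KOP, 1 h at room temperature. Filters PEI-presoaked, washed with cold 50 mM Tris-HCl pH 7.4, counted by scintillation; percent inhibition calculated, reference ligand defining non-specific binding.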

Test [4] addresses T4, Human Melanocortin (MC3) (Homo sapiens, UniProt P41968).
T4 construct: purchased Perkin Elmer Biosignal
The test is described as follows: Radioligand binding, human melanocortin MC3 membranes, FlashPlate, [125I]-NDP-αMSH. Particulars: compound at 10 μM; human melanocortin MC3 membranes. The essentials: as §1

Test [5] concerns the target T5, Human μ-opioid (MOP) (Homo sapiens, UniProt P35372).
T5 construct: purchased Perkin Elmer Biosignal
The test can be described thus: Radioligand binding, human μ-opioid (MOP) membranes, FlashPlate, [3H]-Naloxone. Particulars: compound at 10 μM; human μ-opioid (MOP) membranes. In a few lines: as §1

In test [6] the target is T6, Human melanin-concentrating hormone (MCH1) (Homo sapiens, UniProt Q99705).
T6 construct: purchased Perkin Elmer Biosignal
T6 sequence (Q99705 whole entry): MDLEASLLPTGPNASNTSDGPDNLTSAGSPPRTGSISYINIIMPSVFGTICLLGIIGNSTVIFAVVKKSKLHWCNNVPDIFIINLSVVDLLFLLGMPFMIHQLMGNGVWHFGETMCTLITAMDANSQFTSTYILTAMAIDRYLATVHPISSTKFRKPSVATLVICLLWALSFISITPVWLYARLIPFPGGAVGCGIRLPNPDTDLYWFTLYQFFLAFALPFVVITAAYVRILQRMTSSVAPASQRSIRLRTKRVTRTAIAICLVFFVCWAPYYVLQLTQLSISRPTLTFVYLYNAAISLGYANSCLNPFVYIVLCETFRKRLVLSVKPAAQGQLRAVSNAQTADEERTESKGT
The test is described as follows: Radioligand binding, human melanin-concentrating hormone MCH1 membranes, FlashPlate, [125I]-S36057. Particulars: compound at 10 μM; human MCH1 membranes. In a few lines:
as §1

Test [7] concerns the target T7, Human neuropeptide Y (NPY-Y1) (Homo sapiens, UniProt P25929).
T7 construct: purchased Perkin Elmer Biosignal
T7 sequence (P25929 1-384): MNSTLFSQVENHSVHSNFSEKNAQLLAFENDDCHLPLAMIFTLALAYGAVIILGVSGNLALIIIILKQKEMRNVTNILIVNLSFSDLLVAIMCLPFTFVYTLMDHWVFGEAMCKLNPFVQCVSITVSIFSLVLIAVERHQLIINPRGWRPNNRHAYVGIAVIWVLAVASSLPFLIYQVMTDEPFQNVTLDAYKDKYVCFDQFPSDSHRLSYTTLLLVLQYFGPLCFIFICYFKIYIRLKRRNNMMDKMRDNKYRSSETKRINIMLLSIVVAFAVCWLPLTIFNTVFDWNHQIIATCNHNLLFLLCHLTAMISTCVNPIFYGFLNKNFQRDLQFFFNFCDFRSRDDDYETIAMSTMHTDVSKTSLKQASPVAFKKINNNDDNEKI
The test can be described thus: Radioligand binding, human neuropeptide Y NPY-Y1 membranes, FlashPlate, [125I]-PYY. Particulars: compound at 10 μM; human NPY-Y1 membranes. In a few lines: as §1

In test [8] the target is T8, Human Melanocortin (MC4) (Homo sapiens, UniProt P32245).
T8 construct: purchased Perkin Elmer Biosignal
T8 sequence (P32245 whole entry): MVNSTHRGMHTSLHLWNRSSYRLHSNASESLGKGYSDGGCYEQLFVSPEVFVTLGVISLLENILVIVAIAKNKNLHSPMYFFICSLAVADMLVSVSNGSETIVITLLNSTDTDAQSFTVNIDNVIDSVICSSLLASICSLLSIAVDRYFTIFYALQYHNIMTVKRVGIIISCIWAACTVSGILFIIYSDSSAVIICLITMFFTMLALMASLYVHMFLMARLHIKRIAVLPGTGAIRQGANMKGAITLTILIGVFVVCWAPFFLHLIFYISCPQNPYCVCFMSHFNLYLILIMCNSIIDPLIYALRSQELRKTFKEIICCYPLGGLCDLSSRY
The test is described as follows: Radioligand binding, human melanocortin MC4 membranes, FlashPlate, [125I]-NDP-αMSH. Particulars: compound at 10 μM; human melanocortin MC4 membranes. In a few lines:
as §1

Test [9] deals with T9, Human opioid (ORL1) (Homo sapiens, UniProt P41146).
T9 construct: purchased Perkin Elmer Biosignal
T9 sequence (P41146 whole entry): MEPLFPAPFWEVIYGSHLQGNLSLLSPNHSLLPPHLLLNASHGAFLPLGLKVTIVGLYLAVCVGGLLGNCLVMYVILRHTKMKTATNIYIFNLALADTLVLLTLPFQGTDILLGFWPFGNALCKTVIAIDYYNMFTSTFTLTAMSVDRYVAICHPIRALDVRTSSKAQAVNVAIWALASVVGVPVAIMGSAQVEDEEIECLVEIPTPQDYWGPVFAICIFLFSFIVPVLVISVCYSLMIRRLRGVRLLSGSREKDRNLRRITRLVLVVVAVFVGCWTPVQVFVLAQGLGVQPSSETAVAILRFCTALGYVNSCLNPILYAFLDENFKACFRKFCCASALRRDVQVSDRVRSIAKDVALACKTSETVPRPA
The test can be described thus: Radioligand binding, human opioid ORL1 membranes, FlashPlate, [125I]-Nociceptin. Particulars: compound at 10 μM; human ORL1 membranes. In a few lines:
as §1

Test [10] deals with T10, Human melanocortin (MC5) (Homo sapiens, UniProt P33032).
T10 construct: purchased Perkin Elmer Biosignal
T10 sequence (P33032 whole entry): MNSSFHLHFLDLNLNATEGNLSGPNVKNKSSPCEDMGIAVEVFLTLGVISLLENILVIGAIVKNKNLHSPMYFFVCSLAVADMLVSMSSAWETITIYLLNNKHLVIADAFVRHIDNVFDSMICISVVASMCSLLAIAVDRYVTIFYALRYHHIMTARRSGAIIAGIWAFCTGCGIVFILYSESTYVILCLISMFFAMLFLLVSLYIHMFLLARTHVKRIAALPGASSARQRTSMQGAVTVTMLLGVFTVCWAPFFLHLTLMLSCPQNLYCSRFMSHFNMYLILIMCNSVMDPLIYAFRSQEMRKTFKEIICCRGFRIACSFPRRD
The test can be described thus: Radioligand binding, human melanocortin MC5 membranes, FlashPlate, [125I]-NDP-αMSH. Particulars: compound at 10 μM; human melanocortin MC5 membranes. The essentials: as §1

In test [11] the target is T11, Human neurokinin (NK1) (Homo sapiens, UniProt P25103).
T11 construct: purchased Perkin Elmer Biosignal
T11 sequence (P25103 whole entry): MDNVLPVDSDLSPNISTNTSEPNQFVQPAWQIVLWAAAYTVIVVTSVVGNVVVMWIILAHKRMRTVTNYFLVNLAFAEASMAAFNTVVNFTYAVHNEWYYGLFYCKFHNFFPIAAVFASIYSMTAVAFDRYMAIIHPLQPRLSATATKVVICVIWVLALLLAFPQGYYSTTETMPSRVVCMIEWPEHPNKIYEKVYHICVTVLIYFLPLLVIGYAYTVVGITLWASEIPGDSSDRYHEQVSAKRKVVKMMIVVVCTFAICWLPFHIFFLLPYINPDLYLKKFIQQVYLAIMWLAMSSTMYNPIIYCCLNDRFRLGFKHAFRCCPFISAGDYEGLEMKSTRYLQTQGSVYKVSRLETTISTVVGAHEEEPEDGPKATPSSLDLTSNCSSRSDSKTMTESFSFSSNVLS
The test can be described thus: Radioligand binding, human neurokinin NK1 membranes, filtration, [125I]-Substance P. Particulars: compound at 10 μM; human neurokinin NK1 membranes. The essentials:
as §2

Data on 5 molecules can be found in US20080009418A1, “Selective Inhibitors” (Alchemia LTD., priority 2004, published 2008).

T5 sequence (P35372 whole entry): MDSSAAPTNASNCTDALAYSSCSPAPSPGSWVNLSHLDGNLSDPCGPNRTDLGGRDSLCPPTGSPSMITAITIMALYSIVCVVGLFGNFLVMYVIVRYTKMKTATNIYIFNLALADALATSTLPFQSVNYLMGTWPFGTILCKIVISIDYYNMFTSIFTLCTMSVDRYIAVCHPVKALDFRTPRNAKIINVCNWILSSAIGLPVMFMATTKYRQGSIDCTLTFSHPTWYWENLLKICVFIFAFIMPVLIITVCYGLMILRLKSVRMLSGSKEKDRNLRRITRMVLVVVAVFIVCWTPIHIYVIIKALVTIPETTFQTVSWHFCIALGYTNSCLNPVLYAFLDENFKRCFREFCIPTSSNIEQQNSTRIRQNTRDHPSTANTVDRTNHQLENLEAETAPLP
T3 sequence (P41145 whole entry): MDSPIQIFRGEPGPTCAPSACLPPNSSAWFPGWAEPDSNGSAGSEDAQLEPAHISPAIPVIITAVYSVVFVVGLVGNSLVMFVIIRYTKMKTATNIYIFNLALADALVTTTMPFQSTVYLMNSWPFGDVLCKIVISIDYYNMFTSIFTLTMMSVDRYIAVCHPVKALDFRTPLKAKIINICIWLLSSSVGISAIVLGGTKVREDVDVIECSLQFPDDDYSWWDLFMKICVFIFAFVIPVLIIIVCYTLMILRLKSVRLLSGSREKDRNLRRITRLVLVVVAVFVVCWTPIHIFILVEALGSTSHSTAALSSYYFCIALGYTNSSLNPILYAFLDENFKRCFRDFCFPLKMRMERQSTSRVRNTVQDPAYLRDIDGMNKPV
T2 sequence (P41143 whole entry): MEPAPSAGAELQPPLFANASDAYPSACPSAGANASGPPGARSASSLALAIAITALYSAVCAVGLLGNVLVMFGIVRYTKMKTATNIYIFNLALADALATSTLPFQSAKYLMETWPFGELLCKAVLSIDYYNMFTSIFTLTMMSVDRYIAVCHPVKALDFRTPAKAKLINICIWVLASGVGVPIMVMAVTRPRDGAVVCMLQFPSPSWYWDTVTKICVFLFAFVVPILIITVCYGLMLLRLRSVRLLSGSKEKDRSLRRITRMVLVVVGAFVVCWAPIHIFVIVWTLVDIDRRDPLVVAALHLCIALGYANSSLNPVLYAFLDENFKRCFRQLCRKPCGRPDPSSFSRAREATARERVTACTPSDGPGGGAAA
T4 sequence (P41968 whole entry): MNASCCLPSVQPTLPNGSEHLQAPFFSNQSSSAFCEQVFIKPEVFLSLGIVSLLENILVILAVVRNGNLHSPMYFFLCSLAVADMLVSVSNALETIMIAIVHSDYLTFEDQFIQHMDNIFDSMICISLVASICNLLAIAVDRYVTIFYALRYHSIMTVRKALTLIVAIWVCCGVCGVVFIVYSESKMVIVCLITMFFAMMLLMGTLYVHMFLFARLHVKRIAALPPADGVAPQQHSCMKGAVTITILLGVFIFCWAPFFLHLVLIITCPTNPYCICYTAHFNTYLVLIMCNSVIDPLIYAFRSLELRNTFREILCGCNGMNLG

Regarding `CO[C@H]1[C@H](O)[C@@H](COCc2ccc(Cl)cc2)OC(OCc2ccc(-c3ccccc3)cc2)[C@@H]1NC(=O)CCNC(=N)N` (stereo partly shown) [compound 63], the “A11 radioligand binding inhibition” value in test [1] is “− (“−” indicates less than 50% inhibition at 10 μM)”. The “A1 radioligand binding inhibition” value in [2] was “− (“−” indicates less than 50% inhibition at 10 μM)”. Also, the “A2 radioligand binding inhibition” value in test [3] was “+ (“+” indicates greater than 50% inhibition at 10 μM)”. For the same molecule, the “A3 radioligand binding inhibition” value in test [4] was “+ (“+” indicates greater than 50% inhibition at 10 μM)”. Further, the “A7 radioligand binding inhibition” value in test [5] is listed as “+ (“+” indicates greater than 50% inhibition at 10 μM)”. Besides, the “A6 radioligand binding inhibition” value in test [6] was “+ (“+” indicates greater than 50% inhibition at 10 μM)”. The “A9 radioligand binding inhibition” value in test [7] is listed as “+ (“+” indicates greater than 50% inhibition at 10 μM)”. Further, the “A4 radioligand binding inhibition” value in test [8] is “+ (“+” indicates greater than 50% inhibition at 10 μM)”. In [9], the “A10 radioligand binding inhibition” value is “+ (“+” indicates greater than 50% inhibition at 10 μM)”. Moreover, in test [10], the “A5 radioligand binding inhibition” value is recorded as “+ (“+” indicates greater than 50% inhibition at 10 μM)”. Moreover, in test [11], the “A8 radioligand binding inhibition” value is given as “+ (“+” indicates greater than 50% inhibition at 10 μM)”.
For `CO[C@H]1[C@H](O)[C@@H](COCc2ccc(Cl)cc2)OC(OCc2ccc(-c3ccccc3)cc2)[C@@H]1NC(=O)CCCN` (stereo partly shown) [compound 64], the “A11 radioligand binding inhibition” value in test [1] is “− (“−” indicates less than 50% inhibition at 10 μM)”. Besides, the “A1 radioligand binding inhibition” value in test [2] was “− (“−” indicates less than 50% inhibition at 10 μM)”. In addition, the “A2 radioligand binding inhibition” value in [3] is “− (“−” indicates less than 50% inhibition at 10 μM)”. For the same molecule, the “A3 radioligand binding inhibition” value in test [4] is on record as “+ (“+” indicates greater than 50% inhibition at 10 μM)”. Further, the “A7 radioligand binding inhibition” value in test [5] was “− (“−” indicates less than 50% inhibition at 10 μM)”. In test [6], the “A6 radioligand binding inhibition” value is reported as “− (“−” indicates less than 50% inhibition at 10 μM)”. Further, the “A9 radioligand binding inhibition” value in test [7] is “− (“−” indicates less than 50% inhibition at 10 μM)”. Also, the “A4 radioligand binding inhibition” value in [8] is recorded as “− (“−” indicates less than 50% inhibition at 10 μM)”. Besides, in test [9], the “A10 radioligand binding inhibition” value is “− (“−” indicates less than 50% inhibition at 10 μM)”. Besides, the “A5 radioligand binding inhibition” value in test [10] is “+ (“+” indicates greater than 50% inhibition at 10 μM)”. In addition, in test [11], the “A8 radioligand binding inhibition” value was “+ (“+” indicates greater than 50% inhibition at 10 μM)”.
On to `CO[C@H]1[C@H](O)[C@@H](COCc2ccc(Cl)cc2)OC(OCc2ccc(-c3ccccc3)cc2)[C@@H]1NC(=O)CCCNC(=N)N` (stereo partly shown) [compound 65], for which, in test [1], the “A11 radioligand binding inhibition” value is “− (“−” indicates less than 50% inhibition at 10 μM)”. In test [2], the “A1 radioligand binding inhibition” value is on record as “− (“−” indicates less than 50% inhibition at 10 μM)”. Also, the “A2 radioligand binding inhibition” value in test [3] is given as “− (“−” indicates less than 50% inhibition at 10 μM)”. The “A3 radioligand binding inhibition” value in [4] is “+ (“+” indicates greater than 50% inhibition at 10 μM)”. The “A7 radioligand binding inhibition” value in [5] is “+ (“+” indicates greater than 50% inhibition at 10 μM)”. The “A6 radioligand binding inhibition” value in test [6] was “− (“−” indicates less than 50% inhibition at 10 μM)”. In addition, the “A9 radioligand binding inhibition” value in [7] is given as “− (“−” indicates less than 50% inhibition at 10 μM)”. Moreover, the “A4 radioligand binding inhibition” value in [8] is given as “+ (“+” indicates greater than 50% inhibition at 10 μM)”. Also, the “A10 radioligand binding inhibition” value in test [9] was “− (“−” indicates less than 50% inhibition at 10 μM)”. In test [10], the “A5 radioligand binding inhibition” value is given as “+ (“+” indicates greater than 50% inhibition at 10 μM)”. Also, the “A8 radioligand binding inhibition” value in test [11] is on record as “+ (“+” indicates greater than 50% inhibition at 10 μM)”.
Consider `CO[C@H]1[C@H](O)[C@@H](COCc2ccc(-c3ccccc3)cc2)OC(OCc2ccc3ccccc3c2)[C@@H]1NC(=O)CNC(=N)N` (stereo partly shown) [compound 66], for which the “A11 radioligand binding inhibition” value in test [1] was “− (“−” indicates less than 50% inhibition at 10 μM)”. The “A1 radioligand binding inhibition” value in test [2] is given as “− (“−” indicates less than 50% inhibition at 10 μM)”. Besides, the “A2 radioligand binding inhibition” value in test [3] is recorded as “− (“−” indicates less than 50% inhibition at 10 μM)”. For the same molecule, the “A3 radioligand binding inhibition” value in [4] is listed as “+ (“+” indicates greater than 50% inhibition at 10 μM)”. In addition, the “A7 radioligand binding inhibition” value in [5] is on record as “+ (“+” indicates greater than 50% inhibition at 10 μM)”. Also, the “A6 radioligand binding inhibition” value in test [6] was “+ (“+” indicates greater than 50% inhibition at 10 μM)”. Moreover, in test [7], the “A9 radioligand binding inhibition” value is recorded as “− (“−” indicates less than 50% inhibition at 10 μM)”. Also, in [8], the “A4 radioligand binding inhibition” value is listed as “+ (“+” indicates greater than 50% inhibition at 10 μM)”. Besides, the “A10 radioligand binding inhibition” value in [9] is given as “− (“−” indicates less than 50% inhibition at 10 μM)”. Besides, the “A5 radioligand binding inhibition” value in [10] was “+ (“+” indicates greater than 50% inhibition at 10 μM)”. Besides, in test [11], the “A8 radioligand binding inhibition” value is “+ (“+” indicates greater than 50% inhibition at 10 μM)”.
Consider `CO[C@H]1[C@H](O)[C@@H](COCc2ccc(-c3ccccc3)cc2)OC(OCc2ccc3ccccc3c2)[C@@H]1NC(=O)CCNC(=N)N` (stereo partly shown) [compound 67], for which the “A11 radioligand binding inhibition” value in test [1] was “− (“−” indicates less than 50% inhibition at 10 μM)”. In [2], the “A1 radioligand binding inhibition” value is “+ (“+” indicates greater than 50% inhibition at 10 μM)”. Also, in test [3], the “A2 radioligand binding inhibition” value is given as “− (“−” indicates less than 50% inhibition at 10 μM)”. Further, the “A3 radioligand binding inhibition” value in test [4] is reported as “+ (“+” indicates greater than 50% inhibition at 10 μM)”. The “A7 radioligand binding inhibition” value in [5] is recorded as “+ (“+” indicates greater than 50% inhibition at 10 μM)”. In addition, the “A6 radioligand binding inhibition” value in [6] is “+ (“+” indicates greater than 50% inhibition at 10 μM)”. Moreover, the “A9 radioligand binding inhibition” value in [7] is reported as “− (“−” indicates less than 50% inhibition at 10 μM)”. Moreover, the “A4 radioligand binding inhibition” value in test [8] was “+ (“+” indicates greater than 50% inhibition at 10 μM)”. Further, in test [9], the “A10 radioligand binding inhibition” value is recorded as “+ (“+” indicates greater than 50% inhibition at 10 μM)”. Also, the “A5 radioligand binding inhibition” value in test [10] is given as “+ (“+” indicates greater than 50% inhibition at 10 μM)”. In addition, the “A8 radioligand binding inhibition” value in test [11] is listed as “+ (“+” indicates greater than 50% inhibition at 10 μM)”.
